Assay results taken from ChEMBL document CHEMBL1136146, “Pyrimidinone antibiotics--heterocyclic analogues with improved antibacterial spectrum” (Bioorg Med Chem Lett, 2003).

Key:
Staphylococcus aureus [1] = test: In vitro minimum inhibitory concentration against Staphylococcus aureus 133.; type: functional
Escherichia coli = test: Inhibitory activity tested against procaryotic translation in Escherichia coli S30 Extract System; type: functional, organism-based
Oryctolagus cuniculus = species on record: Oryctolagus cuniculus; test: Inhibitory activity tested against eucaryotic translation in Rabbit Reticulocyte Lysate System L 4540; type: functional
[2] = In vitro selectivity index was measured as IC50 eucaryotic translation/procaryotic translation; type: functional
[3] = Antibacterial activity against […] pneumoniae 1707/4 was determined; type: functional
[4] = tested on: Staphylococcus epidermidis; test: Antibacterial activity against Staphylococcus epidermidis 18570 was determined; type: functional
Enterococcus faecium [5] = test: Antibacterial activity against Enterococcus faecium 18531 was determined; type: functional
Enterococcus faecium [6] = test: Antibacterial activity against Enterococcus faecium L 4001 was determined; type: functional
Staphylococcus aureus [7] = test: Antibacterial activity against Staphylococcus aureus 133 was determined; type: functional
[8] = Antibacterial activity against […] pneumoniae G9a was determined; type: functional

Structure (SMILES) | MIC (Staphylococcus aureus [1]) [µg/mL] | IC50 (Escherichia coli) [nM] | IC50 (Oryctolagus cuniculus) [nM] | other results
CN(C(=O)C[C@@H](N)c1csc(CCN)n1)C1CN=C(NC(N)=O)NC1=O.O=S(=O)(O)C(F)(F)F (stereo partly drawn) | 100 | 16000 |  | 
Br.CN(C(=O)C[C@@H](N)CCCN=C(N)N)C1CN=C(Nc2ncccn2)NC1=O (stereo partly drawn) | 0.4 | < 50 | 100 | Selectivity [2]: > 2
Br.CN(C(=O)C[C@@H](N)CCCCN)C1CN=C(Nc2nc3ccccc3s2)NC1=O (stereo partly drawn) | 25 | 3200 |  | 
CN(C(=O)C[C@@H](N)CCCCN)C1CN=C(Nc2ncccn2)NC1=O.Cl.Cl (stereo partly drawn) | 1.6 | 1000 | 380 | Selectivity [2]: 0.38
CC(=O)O.CN(C(=O)C[C@@H](N)CCCCN)C1CN=C(Nc2ccc3ccccc3n2)NC1=O (stereo partly drawn) | 6.3 | 50 | 50 | Selectivity [2]: 1
CC(=O)O.CN(C(=O)C[C@@H](N)CCCN=C(N)N)C1CN=C(Nc2ccc3ccccc3n2)NC1=O (stereo partly drawn) | 0.1 | 100 | 100 | MIC [3]: 8 µg/mL; MIC [4]: 0.25 µg/mL; MIC (Enterococcus faecium [5]): > 16 µg/mL; MIC (Enterococcus faecium [6]): 8 µg/mL; MIC (Staphylococcus aureus [7]): 0.5 µg/mL; Selectivity [2]: 1
Br.Cc1csc(NC2=NCC(N(C)C(=O)C[C@@H](N)CCCCN)C(=O)N2)n1 (stereo partly drawn) | 50 | 1000 |  | 
CN(C(=O)C[C@@H](N)c1csc(CN)n1)C1CN=C(NC(N)=O)NC1=O.O=S(=O)(O)C(F)(F)F (stereo partly drawn) | 50 | 32000 |  | 
CN(C(=O)C[C@@H](N)CCCCN)C1CN=C(NC2=NCCCN2)NC1=O.Cl.Cl (stereo partly drawn) | > 100 |  |  | 
CC(=O)O.CN(C(=O)C[C@@H](N)CCCCN)C1CN=C(Nc2ccccc2)NC1=O (stereo partly drawn) | 100 |  |  | 
CN(C(=O)C[C@@H](N)c1cc(CN)on1)C1CN=C(NC(N)=O)NC1=O.Cl.Cl (stereo partly drawn) | > 100 | > 64000 |  | 
CC(=O)O.CN(C(=O)C[C@@H](N)CCCCN)C1CN=C(Nc2nc3ccccc3[nH]2)NC1=O (stereo partly drawn) | 50 | 1000 |  | 
CN(C(=O)C[C@@H](N)CCCCN)C1CN=C(NC(N)=O)NC1=O.Cl.Cl (stereo partly drawn) | 0.05 | 500 | 2800 | Selectivity [2]: 5.3
CN(C(=O)C[C@@H](N)CSCCN)C1CN=C(NC(N)=O)NC1=O.Cl.Cl (stereo partly drawn) | 100 |  |  | 
CC(=O)O.CN(C(=O)C[C@@H](N)CCCCN)C1CN=C(Nc2cccnc2)NC1=O (stereo partly drawn) | 50 | > 64000 |  | 
CC(=O)O.CN(C(=O)C[C@@H](N)CCCN=C(N)N)C1CN=C(Nc2ccccn2)NC1=O (stereo partly drawn) | < 0.05 |  | 70 | MIC [3]: 2 µg/mL; MIC [4]: 0.25 µg/mL; MIC [8]: 2 µg/mL; MIC (Enterococcus faecium [5]): > 64 µg/mL; MIC (Enterococcus faecium [6]): 2 µg/mL; ED100 (Staphylococcus aureus [7]): 1 mg/kg; MIC (Staphylococcus aureus [7]): 0.5 µg/mL
Br.CN(C(=O)C[C@@H](N)CCCCN)C1CN=C(Nc2cnccn2)NC1=O (stereo partly drawn) | < 0.1 | < 100 | < 100 | 
CC(=O)O.CN(C1=NCC(N(C)C(=O)C[C@@H](N)CCCCN)C(=O)N1)c1ccccn1 (stereo partly drawn) | > 100 |  |  | 
CN(C(=O)C[C@@H](N)CS(=O)(=O)CCN)C1CN=C(NC(N)=O)NC1=O.Cl.Cl (stereo partly drawn) | > 100 |  |  | 
CN(C(=O)C[C@@H](N)CCCN=C(N)N)C1CN=C(NC(N)=O)NC1=O.Cl.Cl (stereo partly drawn) | 0.1 | 300 | 170 | MIC [3]: 32 µg/mL; MIC [4]: 0.25 µg/mL; MIC [8]: 16 µg/mL; MIC (Enterococcus faecium [5]): > 16 µg/mL; MIC (Enterococcus faecium [6]): 2 µg/mL; ED100 (Staphylococcus aureus [7]): 0.25 mg/kg; MIC (Staphylococcus aureus [7]): 0.25 µg/mL; Selectivity [2]: 0.57
CC(=O)O.CN(C(=O)C[C@@H](N)CCCCN)C1CN=C(Nc2ccccn2)NC1=O (stereo partly drawn) | 0.2 |  |  | 
